Reference: patent US4686215A, “Pharmaceutical composition and method for treating tumors susceptible to 2-carbamoylaziridine” (priority 1976, dated 1987)

How the values were obtained:
[1] = prior art compound; cited from earlier work
carcinosarcoma DS = details: known drugs, prior art; cited from earlier work
SA-45 = test: action in rats with SA-45 at late stages of tumor development (17 days after implantation); format: in vivo, rat; details: group II; 10 animals; i.v. 1500 mg/kg, 17 days after tumor implantation
Description: (§1) Non-linear male rats with the starting weight 120-150 g were used in the experiments described hereinunder in Examples 1-4. All the animals were administered intravenously a single dose of the pharmaceutical composition in the form of the concentrated solution (10-30%) of the active principle in distilled water at a rate of 1500 mg/kg. The animals were decapitated on the 20th say from the day of the administration. All the animals received the usual laboratory ration.
The action of the pharmaceutical composition consisting of 30% solution of the active principle above formula where R is NH2, in distilled water was tested in rats with SA-45 at late stages of tumor development. The composition was administered 17 days after tumor implantation. The results of the experiment are presented in Table 4 where I--control animals, II--rats which were administered the pharmaceutical composition.

toxicity (LD50) = format: in vivo; details: compared with prior art
[2] = tested on: implanted mammary gland cancer (RMGC-1); test: action on tumor growth in rats with implanted mammary gland cancer RMGC-1, early stage (24 hours after implantation); format: in vivo, rat; details: 10 animals
Description: as §1
The action of the pharmaceutical composition consisting of 30% solution of the active principle of the above formula where R is NHNH2, in distilled water on tumor growth was tested in rats with implanted mammary gland cancer (RMGC-1). The results of the experiments are presented in Table 1, where I--control animals, II--rats which were administered the pharmaceutical composition, III--rats which were administered the same composition against the background of 90 minutes' hyperglycemia. The animals of groups II and III were administered the composition 24 hours after tumor implantation.

implanted RMCC-1 = test: action in rats with implanted RMCC-1 at late stage of tumor development (15 days after implantation); format: in vivo, rat; details: group II, i.v. 1500 mg/kg
Description: as §1
The action of the same pharmaceutical composition as in Example 1 was tested in rats with implanted RMCC-1 at late stage of tumor development. The pharmaceutical composition was administered 15 days after tumor implanatation, the average weight of the tumor being 35 g. The groups of the animals are designated as in Example 1. None of the controls survived till the day of decapitation (the 20th day after the administration of the pharmaceutical composition to group II).

implanted SA-45 = test: action in rats with implanted SA-45 at early stages of tumor development (48 hours after implantation); format: in vivo, rat; details: group II; 10 animals; i.v. 1500 mg/kg, 48 hours after tumor implantation
Description: as §1
The action of the same pharmaceutical composition as in Example 1 was tested in rats with implanted SA-45 at early stages of tumor development. The pharmaceutical composition was administered 48 hours after tumor implantation. The results of the experiment are presented in Table 3, where I--control group, II--rats which were administered pharmaceutical composition.

[3] = group II, single i.v. dose 1500 mg/kg, 24 hours after tumor implantation, 20th day
[4] = group III, against the background of 90 minutes' hyperglycemia, i.v. 1500 mg/kg, 24 hours after implantation
[5] = 6 animals, 15 days after tumor implantation, average tumor weight 35 g

In the case of `N#CC1CN1C(N)=O` (centres unmarked) [1-carbamoyl-2-cyano-aziridine], the LD50 [1] is listed as 1 250 mg/kg and the “cure of rats with carcinosarcoma DS” value (carcinosarcoma DS) is listed as 47.4%.
In the case of `NC(=O)C1CN1` (centres unmarked) [2-carbamoylaziridine], the “Complete disappearance of the tumor (animals)” value (“Complete disappearance” for short) (SA-45) was 6, the “No effect (animals)” value (SA-45) was 2 and the “Partial disappearance of the tumor (animals)” value (“Partial disappearance” for short) (SA-45) was 2. The therapeutic index (toxicity (LD50)) was “considerably higher”.
For `NNC(=O)C1CN1` (centres unmarked) [active principle where R is NHNH2], the “Complete disappearance” value [2, 3] was 8, the “No effect (animals)” value [2, 3] was 2 and the “Complete disappearance” value [2, 4] was 7. For the same compound, the “No effect (animals)” value [2, 4] was 1, the “Partial disappearance” value [2, 4] was 2 and the “Life time increased by” value (implanted RMCC-1; animals with partial disappearance of the tumor, 15 days after implantation) was 50%. The “Complete disappearance” value (implanted RMCC-1; [5]) was 3, the “Partial disappearance” value (implanted RMCC-1; [5]) was 3 and the “Complete disappearance” value (implanted SA-45) was 3. The “No effect (animals)” value (implanted SA-45) was 4 and the “Partial disappearance” value (implanted SA-45) was 3.
